Source: US20240287052A1, “NOVEL OXAZOLE DERIVATIVE AND PHARMACEUTICAL COMPOSITION FOR PREVENTING OR TREATING ALLERGIC DISEASES COMPRISING THE SAME” (AZCURIS CO., LTD., priority 2021, published 2024)
Read-outs that look alike come from different tables or passages of the source.

Molecular target: T1, IL33 and ST2 binding (Homo sapiens, UniProt O95760)
T1 sequence (O95760 112-270 limits assumed): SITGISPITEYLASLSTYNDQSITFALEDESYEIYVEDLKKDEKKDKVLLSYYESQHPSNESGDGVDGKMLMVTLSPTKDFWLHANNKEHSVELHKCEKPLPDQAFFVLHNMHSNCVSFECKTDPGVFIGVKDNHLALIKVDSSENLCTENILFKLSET
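Note: plate ELISA with coated Flag-tagged human IL-33 and His-tagged human ST2, bound ST2 detected by anti-His HRP and TMB absorbance at 450 nm, 2 h compound incubation.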

Protocol: 100 nM of Flag tagged IL-33 human recombinant protein was prepared in 1× coating buffer (Biolegend) and placed in a 96 well microplate (Coming) using a Multichannel pipette (Gilson) and coated for at least 12 hours at 4° C.
After washing three times with PBST (1×PBS (Welgene), 1% Tween 20 (sigma)), it was reacted with 1% BSA (Bovogen) blocking buffer for 1 hour at room temperature.
Samples containing 200 nM of His-tagged ST2 human recombinant protein and 60 μM or 200 μM Example synthetic compounds were prepared, added in equal volumes, and reacted for at least 2 hours at room temperature.
After washing three times with PBST (1×PBS (Welgene), 1% Tween 20 (sigma)), anti-His HRP (BioLegend) antibody was diluted 5000:1 and reacted for at least 1 hour at room temperature.
After washing three times with PBST (1×PBS (Welgene), 1% Tween 20 (sigma)), TMB substrate solution (Thermo) was added and reacted for more than 5 minutes. The reaction was stopped by adding 1 N HCl (Samchun) and the absorbance value was obtained at 450 nm after orbital shaking for 5 s with a Microplate reader (Tecan, Spark®).
The results derived from the program linked to the microplate reader were analyzed using an Excel program. IL33-ST2 binding rate (binding %) was calculated by averaging the three values obtained in triplicate, subtracting the positive control value, and converting the negative control value to 100%. The inhibition % value of each compound was obtained by subtracting the IL33-ST2 binding % from 100%, and the error range of triplicate was also obtained and reflected in the inhibition graph of the compound.

Structure (SMILES)	inhibition (30 µM)	inhibition (100 µM)
O=C(NCCN1CCNCC1)c1nc(-c2ccc(C(F)(F)F)cc2)oc1-c1ccccc1[N+](=O)[O-] [Compound 281, 5-(2-nitrophenyl)-N-(2-(piperazin-1-yl)ethyl)-2-(4-(trifluoromethyl)phenyl)oxazole-4-carboxamide]	73%	71%
CN(C)CCNC(=O)c1nc(-c2ccc(-c3ccccc3)cc2)oc1-c1ccccc1 [Compound 253, 2-([1,1′-Biphenyl]-4-yl)-N-(2-(dimethylamino)ethyl)-5-phenyloxazole-4-carboxamide]	11%	60%
CN(C)CCCN1CCN(C(=O)c2nc(-c3ccc(C(F)(F)F)cc3)oc2-c2ccccc2[N+](=O)[O-])CC1 [Compound 150, (4-(3-(Dimethylamino)propyl)piperazin-1-yl)(5-(2-nitrophenyl)-2-(4-(trifluoromethyl)phenyl)oxazol-4-yl)methanone]	-18%	7%
CCOC(=O)c1nc(-c2ccc(-c3ccccc3)cc2)oc1-c1ccccc1 [Compound 81, Ethyl 2-([1,1′-biphenyl]-4-yl)-5-phenyloxazole-4-carboxylate]	59%	109%
O=C(NCCc1ccc(O)cc1)c1nc(-c2ccc(C(F)(F)F)cc2)oc1-c1ccccc1 [Compound 130, N-(4-Hydroxyphenethyl)-5-phenyl-2-(4-(trifluoromethyl)phenyl)oxazole-4-carboxamide]	11%	37%
COc1ccc(-c2nc(C(=O)N3CCN(CCN(C)C)CC3)c(-c3ccc([N+](=O)[O-])cc3)o2)cc1 [Compound 218, (4-(2-(Dimethylamino)ethyl)piperazin-1-yl)(2-(4-methoxyphenyl)-5-(4-nitrophenyl)oxazol-4-yl)methanone]	32%	39%
O=C(c1nc(-c2ccc(C(F)(F)F)cc2)oc1-c1ccccc1[N+](=O)[O-])N1CCC(c2ccccc2)CC1 [Compound 145, (5-(2-Nitrophenyl)-2-(4-(trifluoromethyl)phenyl)oxazol-4-yl)(4-phenylpiperidin-1-yl)methanone]	3%	11%
CN(C)CCNC(=O)c1nc(-c2cccc(Cl)c2)oc1-c1ccccc1[N+](=O)[O-] [Compound 242, 2-(3-Chlorophenyl)-N-(2-(dimethylamino)ethyl)-5-(2-nitrophenyl)oxazole-4-carboxamide]	-14%	-12%
O=C(NCCCN1CCOCC1)c1nc(-c2ccc(C(F)(F)F)cc2)oc1-c1ccccc1[N+](=O)[O-] [Compound 157, N-(3-Morpholinopropyl)-5-(2-nitrophenyl)-2-(4-(trifluoromethyl)phenyl)oxazole-4-carboxamide]	22%	15%
O=C(Nc1ccccn1)c1nc(-c2ccc(C(F)(F)F)cc2)oc1-c1ccccc1[N+](=O)[O-] [Compound 143, 5-(2-Nitrophenyl)-N-(pyridin-2-yl)-2-(4-(trifluoromethyl)phenyl)oxazole-4-carboxamide]	9%	8%
CN(C)CCNC(=O)c1nc(-c2ccccc2C(F)(F)F)oc1-c1ccccc1[N+](=O)[O-] [Compound 119, N-(2-(Dimethylamino)ethyl)-5-(2-nitrophenyl)-2-(2-(trifluoromethyl)phenyl)oxazole-4-carboxamide]	-6%	-14%
O=C(NCc1ccc(C(F)(F)F)cc1)c1nc(-c2ccc(C(F)(F)F)cc2)oc1-c1ccccc1[N+](=O)[O-] [Compound 148, 5-(2-Nitrophenyl)-N-(4-(trifluoromethyl)benzyl)-2-(4-(trifluoromethyl)phenyl)oxazole-4-carboxamide]	12%	19%
COc1cccc(-c2nc(C(=O)NCCN3CCN(C)CC3)c(-c3ccccc3[N+](=O)[O-])o2)c1 [Compound 211, 2-(3-methoxyphenyl)-N-(2-(4-methylpiperazin-1-yl)ethyl)-5-(2-nitrophenyl)oxazole-4-carboxamide]	13%	20%
CN1CCN(CCNC(=O)c2nc(-c3ccc(N(C)C)cc3)oc2-c2ccccc2[N+](=O)[O-])CC1 [Compound 264, 2-(4-(Dimethylamino)phenyl)-N-(2-(4-methylpiperazin-1-yl)ethyl)-5-(2-nitrophenyl)oxazole-4-carboxamide]	29%	35%
O=C(NCCN1CCCC1)c1nc(-c2ccc(C(F)(F)F)cc2)oc1-c1ccccc1[N+](=O)[O-] [Compound 139, 5-(2-Nitrophenyl)-N-(2-(pyrrolidin-1-yl)ethyl)-2-(4-(trifluoromethyl)phenyl)oxazole-4-carboxamide]	4%	13%
CN(C)CCN1CCN(C(=O)c2coc(-c3ccc(C(F)(F)F)cc3)n2)CC1 [Compound 116, (4-(2-(dimethylamino)ethyl)piperazin-1-yl)(2-(4-(trifluoromethyl)phenyl)oxazol-4-yl)methanone]	13%	26%
CN1CCN(C(=O)c2nc(-c3ccc(C(F)(F)F)cc3)oc2-c2ccccc2[N+](=O)[O-])CC1 [Compound 155, (4-Methylpiperazin-1-yl)(5-(2-nitrophenyl)-2-(4-(trifluoromethyl)phenyl)oxazol-4-yl)methanone]	-31%	-18%

Structure (SMILES)	inhibition (30 µM)	inhibition (100 µM)
CCOC(=O)N1CCN(C(=O)c2nc(-c3ccc(C(F)(F)F)cc3)oc2-c2ccccc2[N+](=O)[O-])CC1 [Compound 163, Ethyl 4-(5-(2-nitrophenyl)-2-(4-(trifluoromethyl)phenyl)oxazole-4-carbonyl)piperazine-1-carboxylate]	-30%	-19%
O=C(NCCN1CCNCC1)c1nc(-c2cc(F)cc(F)c2)oc1-c1ccccc1[N+](=O)[O-] [Compound 283, 2-(3,5-Difluorophenyl)-5-(2-nitrophenyl)-N-(2-(piperazin-1-yl)ethyl)oxazole-4-carboxamide]	31%	49%
O=C(NCC1CCCO1)c1nc(-c2ccc(C(F)(F)F)cc2)oc1-c1ccccc1[N+](=O)[O-] (stereo not drawn) [Compound 159, 5-(2-Nitrophenyl)-N-((tetrahydrofuran-2-yl)methyl)-2-(4-(trifluoromethyl)phenyl)oxazole-4-carboxamide]	2%	-1%
CN1CCN(CCNC(=O)c2nc(-c3cccc(OC(F)(F)F)c3)oc2-c2ccccc2)CC1 [Compound 200, N-(2-(4-Methylpiperazin-1-yl)ethyl)-5-phenyl-2-(3-(trifluoromethoxy)phenyl)oxazole-4-carboxamide]	5%	0%
CN1CCN(CCNC(=O)c2nc(-c3ccc([N+](=O)[O-])cc3)oc2-c2ccccc2[N+](=O)[O-])CC1 [Compound 278, N-(2-(4-Methylpiperazin-1-yl)ethyl)-5-(2-nitrophenyl)-2-(4-nitrophenyl)oxazole-4-carboxamide]	46%	47%
O=C(NCCc1ccc(O)cc1)c1nc(-c2ccc(C(F)(F)F)cc2)oc1-c1ccccc1[N+](=O)[O-] [Compound 176, N-(4-Hydroxyphenethyl)-5-(2-nitrophenyl)-2-(4-(trifluoromethyl)phenyl)oxazole-4-carboxamide]	27%	36%
O=C(NCCN1CCCCC1)c1nc(-c2ccc(C(F)(F)F)cc2)oc1-c1ccccc1[N+](=O)[O-] [Compound 173, 5-(2-Nitrophenyl)-N-(2-(piperidin-1-yl)ethyl)-2-(4-(trifluoromethyl)phenyl)oxazole-4-carboxamide]	54%	60%
O=C(NCCCN1CCCC1)c1nc(-c2ccc(C(F)(F)F)cc2)oc1-c1ccccc1[N+](=O)[O-] [Compound 140, 5-(2-Nitrophenyl)-N-(3-(pyrrolidin-1-yl)propyl)-2-(4-(trifluoromethyl)phenyl)oxazole-4-carboxamide]	10%	15%
CCOC(=O)c1nc(-c2ccccc2C(F)(F)F)oc1-c1ccccc1 [Compound 27, Ethyl 5-phenyl-2-(2-(trifluoromethyl)phenyl)oxazole-4-carboxylate]	34%	84%
O=C(NCc1ccccc1)c1nc(-c2ccc(C(F)(F)F)cc2)oc1-c1ccccc1[N+](=O)[O-] [Compound 164, N-Benzyl-5-(2-nitrophenyl)-2-(4-(trifluoromethyl)phenyl)oxazole-4-carboxamide]	9%	4%
CCOC(=O)c1nc(-c2ccc(C(F)(F)F)cc2)oc1-c1ccc(N(C(C)=O)C(C)=O)cc1 [Compound 109, Ethyl 5-(4-(N-acetylacetamido)phenyl)-2-(4-(trifluoromethyl)phenyl)oxazole-4-carboxylate]	19%	-2%
CCOC(=O)c1nc(-c2ccc(F)cc2)oc1-c1ccc([N+](=O)[O-])cc1 [Compound 69, Ethyl 2-(4-fluorophenyl)-5-(4-nitrophenyl)oxazole-4-carboxylate]	32%	48%
CCOC(=O)c1nc(-c2ccc(F)cc2)oc1-c1ccccc1 [Compound 67, Ethyl 2-(4-fluorophenyl)-5-phenyloxazole-4-carboxylate]	9%	15%
CN1CCN(CCNC(=O)c2nc(-c3cc(F)cc(F)c3)oc2-c2ccccc2)CC1 [Compound 236, 2-(3,5-Difluorophenyl)-N-(2-(4-methylpiperazin-1-yl)ethyl)-5-phenyloxazole-4-carboxamide]	-8%	-7%
CN(C)CCNC(=O)c1nc(-c2ccc3ccccc3c2)oc1-c1ccccc1[N+](=O)[O-] [Compound 259, N-(2-(Dimethylamino)ethyl)-2-(naphthalen-2-yl)-5-(2-nitrophenyl)oxazole-4-carboxamide]	6%	1%
CN(C)CCNC(=O)c1nc(-c2ccc(F)cc2)oc1-c1ccccc1[N+](=O)[O-] [Compound 226, N-(2-(Dimethylamino)ethyl)-2-(4-fluorophenyl)-5-(2-nitrophenyl)oxazole-4-carboxamide]	-25%	-8%
